Test system: 857933-349-R-J2-PDC complex spheroids, viability
Test: Anticancer human tumor 857933-349-R-J2-PDC patient-derived colon adenocarcinoma cell line growth inhibition [GQUAD]
Conditions: for IC50: curve of first compound; for viability, T/C: stronger effect = lower value
Procedure, shortened: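 Tumor cells were grown as complex spheroids with HUVEC endothelial cells and mesenchymal stem cells as stroma. G-quadruplex stabilizers were combined with targeted agents over half-log dilutions from near the clinical Cmax, or from 10 microM.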

[1] = second compound 0.0316 µM, first compound 0.0316 µM
[2] = second compound 0.0316 µM, first compound 0.1 µM
[3] = second compound 0.0316 µM, first compound 0.316 µM
[4] = second compound 0.0316 µM, first compound 1 µM
[5] = second compound 0.0316 µM, first compound 3.16 µM
[6] = second compound 0.0316 µM, first compound 10 µM
[7] = second compound 0.1 µM, first compound 0.0316 µM
[8] = second compound 0.1 µM, first compound 0.1 µM
[9] = second compound 0.1 µM, first compound 0.316 µM
[10] = second compound 0.1 µM, first compound 1 µM
[11] = second compound 0.1 µM, first compound 3.16 µM
[12] = second compound 0.1 µM, first compound 10 µM
[13] = second compound 0.316 µM, first compound 0.0316 µM
[14] = second compound 0.316 µM, first compound 0.1 µM
[15] = second compound 0.316 µM, first compound 0.316 µM
[16] = second compound 0.316 µM, first compound 1 µM
[17] = second compound 0.316 µM, first compound 3.16 µM
[18] = second compound 0.316 µM, first compound 10 µM
[19] = second compound 1 µM, first compound 0.0316 µM
[20] = second compound 1 µM, first compound 0.1 µM
[21] = second compound 1 µM, first compound 0.316 µM
[22] = second compound 1 µM, first compound 1 µM
[23] = second compound 1 µM, first compound 3.16 µM
[24] = second compound 1 µM, first compound 10 µM
[25] = second compound 3.16 µM, first compound 0.0316 µM
[26] = second compound 3.16 µM, first compound 0.1 µM
[27] = second compound 3.16 µM, first compound 0.316 µM
[28] = second compound 3.16 µM, first compound 1 µM
[29] = second compound 3.16 µM, first compound 3.16 µM
[30] = second compound 3.16 µM, first compound 10 µM
[31] = second compound 10 µM, first compound 0.0316 µM
[32] = second compound 10 µM, first compound 0.1 µM
[33] = second compound 10 µM, first compound 0.316 µM
[34] = second compound 10 µM, first compound 1 µM
[35] = second compound 10 µM, first compound 3.16 µM
[36] = second compound 10 µM, first compound 10 µM
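Further: spheroids exposed to compounds for one week before readout.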
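Wherever viability, T/C is given: percent viability relative to vehicle DMSO wells taken as 100%.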

**Q.** How did the IC50 (second compound 0.0316 µM) turn out when `C#Cc1c(F)ccc2cc(O)cc(-c3ncc4c(N5CC6CCC(C5)N6)nc(OCC56CCCN5CC(F)C6)nc4c3F)c12` (stereo unspecified) + Cc1cnc(CNC(=O)c2c(=O)c3ccc(N4CCCN(C)CC4)nc3n3c2sc2ccccc23)cn1 was run?
**A.** > 10 µM

**Q.** And the IC50 (second compound 0.1 µM)?
**A.** > 10 µM

**Q.** What about the IC50 (second compound 0.316 µM) of the same compound?
**A.** < 0.0316 µM

**Q.** And the IC50 (second compound 1 µM)?
**A.** < 0.0316 µM

**Q.** What about the IC50 (second compound 3.16 µM) of the same compound?
**A.** < 0.0316 µM

**Q.** What about the IC50 (second compound 10 µM) of the same compound?
**A.** < 0.0316 µM

**Q.** What about the viability, T/C [1] of the same compound?
**A.** 101%

**Q.** What about the viability, T/C [2] of the same compound?
**A.** 81.6%

**Q.** What about the viability, T/C [3] of the same compound?
**A.** 72.6%

**Q.** What about the viability, T/C [4] of the same compound?
**A.** 64.5%

**Q.** What about the viability, T/C [5] of the same compound?
**A.** 76.5%

**Q.** And the viability, T/C [6]?
**A.** 63.5%

**Q.** What about the viability, T/C [7] of the same compound?
**A.** 59%

**Q.** And the viability, T/C [8]?
**A.** 64.7%

**Q.** And the viability, T/C [9]?
**A.** 54.6%

**Q.** What about the viability, T/C [10] of the same compound?
**A.** 61.5%

**Q.** What about the viability, T/C [11] of the same compound?
**A.** 68.3%

**Q.** And the viability, T/C [12]?
**A.** 64.3%

**Q.** What about the viability, T/C [13] of the same compound?
**A.** 23.7%

**Q.** And the viability, T/C [14]?
**A.** 24.6%

**Q.** What about the viability, T/C [15] of the same compound?
**A.** 22.4%

**Q.** And the viability, T/C [16]?
**A.** 19.5%

**Q.** And the viability, T/C [17]?
**A.** 22.6%

**Q.** And the viability, T/C [18]?
**A.** 25.7%

**Q.** And the viability, T/C [19]?
**A.** 3.9%

**Q.** What about the viability, T/C [20] of the same compound?
**A.** 5%

**Q.** What about the viability, T/C [21] of the same compound?
**A.** 2.72%

**Q.** And the viability, T/C [22]?
**A.** 2.84%

**Q.** And the viability, T/C [23]?
**A.** 3.14%

**Q.** What about the viability, T/C [24] of the same compound?
**A.** 1.95%

**Q.** And the viability, T/C [25]?
**A.** 2.08%

**Q.** And the viability, T/C [26]?
**A.** 2.35%

**Q.** And the viability, T/C [27]?
**A.** 1.86%

**Q.** What about the viability, T/C [28] of the same compound?
**A.** 1.3%

**Q.** And the viability, T/C [29]?
**A.** 1.63%

**Q.** What about the viability, T/C [30] of the same compound?
**A.** 0.57%

**Q.** What about the viability, T/C [31] of the same compound?
**A.** 0.16%

**Q.** And the viability, T/C [32]?
**A.** 0.2%

**Q.** And the viability, T/C [33]?
**A.** 0.25%

**Q.** And the viability, T/C [34]?
**A.** 0.19%

**Q.** And the viability, T/C [35]?
**A.** 0.24%

**Q.** What about the viability, T/C [36] of the same compound?
**A.** 0.21%

**Q.** With `C=CCn1c(=O)c2cnc(Nc3ccc(N4CCN(C)CC4)cc3)nc2n1-c1cccc(C(C)(C)O)n1` + Cc1cnc(CNC(=O)c2c(=O)c3ccc(N4CCCN(C)CC4)nc3n3c2sc2ccccc23)cn1 as the compound, how does the IC50 (second compound 0.0316 µM) read?
**A.** 0.696 µM

**Q.** What about the IC50 (second compound 0.1 µM) of the same compound?
**A.** 0.263 µM

**Q.** What about the IC50 (second compound 0.316 µM) of the same compound?
**A.** < 0.0316 µM

**Q.** And the IC50 (second compound 1 µM)?
**A.** < 0.0316 µM

**Q.** What about the IC50 (second compound 3.16 µM) of the same compound?
**A.** < 0.0316 µM

**Q.** And the IC50 (second compound 10 µM)?
**A.** < 0.0316 µM

**Q.** What about the viability, T/C [1] of the same compound?
**A.** 92.5%

**Q.** What about the viability, T/C [2] of the same compound?
**A.** 77.4%

**Q.** What about the viability, T/C [3] of the same compound?
**A.** 76.8%

**Q.** What about the viability, T/C [4] of the same compound?
**A.** 38.5%

**Q.** What about the viability, T/C [5] of the same compound?
**A.** 7.81%

**Q.** What about the viability, T/C [6] of the same compound?
**A.** 10.4%

**Q.** And the viability, T/C [7]?
**A.** 53.7%

**Q.** What about the viability, T/C [8] of the same compound?
**A.** 64.7%

**Q.** What about the viability, T/C [9] of the same compound?
**A.** 42.7%

**Q.** What about the viability, T/C [10] of the same compound?
**A.** 32%

**Q.** And the viability, T/C [11]?
**A.** 4.33%

**Q.** And the viability, T/C [12]?
**A.** 7.51%

**Q.** And the viability, T/C [13]?
**A.** 19.5%

**Q.** What about the viability, T/C [14] of the same compound?
**A.** 21.2%

**Q.** And the viability, T/C [15]?
**A.** 11.9%

**Q.** And the viability, T/C [16]?
**A.** 5.37%

**Q.** And the viability, T/C [17]?
**A.** 2.1%

**Q.** What about the viability, T/C [18] of the same compound?
**A.** 3.41%

**Q.** And the viability, T/C [19]?
**A.** 3.56%

**Q.** What about the viability, T/C [20] of the same compound?
**A.** 3.34%

**Q.** And the viability, T/C [21]?
**A.** 2.67%

**Q.** What about the viability, T/C [22] of the same compound?
**A.** 2.03%

**Q.** And the viability, T/C [23]?
**A.** 1.76%

**Q.** And the viability, T/C [24]?
**A.** 2.24%

**Q.** And the viability, T/C [25]?
**A.** 2.07%

**Q.** What about the viability, T/C [26] of the same compound?
**A.** 2.26%

**Q.** And the viability, T/C [27]?
**A.** 2.31%

**Q.** And the viability, T/C [28]?
**A.** 1.3%

**Q.** And the viability, T/C [29]?
**A.** 0.68%

**Q.** And the viability, T/C [30]?
**A.** 1.5%

**Q.** And the viability, T/C [31]?
**A.** 0.17%

**Q.** And the viability, T/C [32]?
**A.** 0.27%

**Q.** What about the viability, T/C [33] of the same compound?
**A.** 0.23%

**Q.** And the viability, T/C [34]?
**A.** 0.2%

**Q.** And the viability, T/C [35]?
**A.** 0.19%

**Q.** And the viability, T/C [36]?
**A.** 0.22%

**Q.** For `CCCS(=O)(=O)Nc1ccc(F)c(C(=O)c2c[nH]c3ncc(-c4ccc(Cl)cc4)cc23)c1F` + Cc1cnc(CNC(=O)c2c(=O)c3ccc(N4CCCN(C)CC4)nc3n3c2sc2ccccc23)cn1, which IC50 (second compound 0.0316 µM) is on record?
**A.** 5.2 µM

**Q.** What about the IC50 (second compound 0.1 µM) of the same compound?
**A.** 1.72 µM

**Q.** And the IC50 (second compound 0.316 µM)?
**A.** < 0.0316 µM

**Q.** What about the IC50 (second compound 1 µM) of the same compound?
**A.** < 0.0316 µM

**Q.** And the IC50 (second compound 3.16 µM)?
**A.** < 0.0316 µM

**Q.** What about the IC50 (second compound 10 µM) of the same compound?
**A.** < 0.0316 µM

**Q.** What about the viability, T/C [1] of the same compound?
**A.** 85.1%

**Q.** And the viability, T/C [2]?
**A.** 88.8%

**Q.** What about the viability, T/C [3] of the same compound?
**A.** 77.6%

**Q.** And the viability, T/C [4]?
**A.** 83.8%

**Q.** What about the viability, T/C [5] of the same compound?
**A.** 86.5%

**Q.** And the viability, T/C [6]?
**A.** 4.81%

**Q.** And the viability, T/C [7]?
**A.** 56.2%

**Q.** And the viability, T/C [8]?
**A.** 58.5%

**Q.** And the viability, T/C [9]?
**A.** 52.4%

**Q.** And the viability, T/C [10]?
**A.** 48.9%

**Q.** And the viability, T/C [11]?
**A.** 47.5%

**Q.** And the viability, T/C [12]?
**A.** 3.42%

**Q.** And the viability, T/C [13]?
**A.** 24%

**Q.** And the viability, T/C [14]?
**A.** 20.3%

**Q.** And the viability, T/C [15]?
**A.** 19.5%

**Q.** What about the viability, T/C [16] of the same compound?
**A.** 12.1%

**Q.** What about the viability, T/C [17] of the same compound?
**A.** 5.66%

**Q.** And the viability, T/C [18]?
**A.** 1.91%

**Q.** What about the viability, T/C [19] of the same compound?
**A.** 3.43%

**Q.** And the viability, T/C [20]?
**A.** 2.87%

**Q.** And the viability, T/C [21]?
**A.** 2.84%

**Q.** And the viability, T/C [22]?
**A.** 2.64%

**Q.** What about the viability, T/C [23] of the same compound?
**A.** 3.04%

**Q.** And the viability, T/C [24]?
**A.** 1.06%

**Q.** What about the viability, T/C [25] of the same compound?
**A.** 2.4%

**Q.** What about the viability, T/C [26] of the same compound?
**A.** 2.36%

**Q.** And the viability, T/C [27]?
**A.** 2.38%

**Q.** What about the viability, T/C [28] of the same compound?
**A.** 1.58%

**Q.** And the viability, T/C [29]?
**A.** 2.13%

**Q.** What about the viability, T/C [30] of the same compound?
**A.** 0.14%

**Q.** And the viability, T/C [31]?
**A.** 0.2%

**Q.** And the viability, T/C [32]?
**A.** 0.21%

**Q.** And the viability, T/C [33]?
**A.** 0.23%

**Q.** And the viability, T/C [34]?
**A.** 0.22%

**Q.** And the viability, T/C [35]?
**A.** 0.23%

**Q.** What about the viability, T/C [36] of the same compound?
**A.** 0.22%

Reference: PubChem BioAssay AID2060491 (Molecular Pharmacology Branch, DTP, NCI, 2025)
